Values joined by “and” are separate entries in the source; they are usually repeats but may differ in a detail not shown here. Equal entries are not always repeated.
What was measured:
rat everted gut sacs [1] = test: Gut sac viability (active glucose transport); conditions: [3H]vinblastine; exception: concentrations higher than 1 ng/ml
rat everted gut sacs [2] = test: Everted rat intestinal sacs: tissue uptake and serosal transfer of [3H]vinblastine, alone or with verapamil/enhancer
[3] = In vivo biodistribution of [3H]vinblastine (100 ng/kg) after oral gavage, alone or co-administered with ascophyllum, xanthan gum or polidocanol; conditions: for AUC Control of [3H]Vinblastine: 100 ng/kg alone
rat everted gut sacs [4] = test: Everted rat intestinal sacs: tissue uptake and serosal transfer of [14C]doxorubicin, alone or with verapamil/enhancer
[5] = [3H]vinblastine 1 ng/ml alone (Control), 90 min
[6] = [3H]vinblastine 1 ng/ml, verapamil 0 ng/ml, 60 min
[7] = [3H]vinblastine (−) verapamil, 0 min
[8] = [3H]vinblastine (−) verapamil, 30 min
[9] = [3H]vinblastine (−) verapamil, 60 min
[10] = [3H]vinblastine (−) verapamil, 90 min
[11] = [3H]vinblastine (−) verapamil, 120 min
[12] = [3H]vinblastine alone 0.1 μg/ml, 60 min
[13] = [3H]vinblastine alone 0.3 μg/ml, 60 min
[14] = [3H]vinblastine alone 0.7 μg/ml, 60 min
[15] = [3H]vinblastine alone 1.0 μg/ml, 60 min
[16] = 5 min-24 h, vinblastine 100 ng/kg alone (control)
[17] = [3H]vinblastine 100 ng/kg alone, after 5 hours
[18] = [3H]vinblastine 100 ng/kg alone, after 24 hours
[19] = [14C]doxorubicin 1 ng/ml alone (Control), 90 min
[20] = [14C]doxorubicin 1 ng/ml, verapamil 0 ng/ml, 60 min
[21] = [14C]doxorubicin 10 ng/ml alone (Control), 90 min
[22] = [14C]doxorubicin 100 ng/ml alone (Control), 90 min
[23] = [14C]doxorubicin (−) verapamil, 0 min
[24] = [14C]doxorubicin (−) verapamil, 30 min
[25] = [14C]doxorubicin (−) verapamil, 60 min
[26] = [14C]doxorubicin (−) verapamil, 90 min
[27] = [14C]doxorubicin (−) verapamil, 120 min
[28] = [14C]doxorubicin alone 1 ng/ml, 60 min
[29] = [14C]doxorubicin alone 3 ng/ml, 60 min
[30] = [14C]doxorubicin alone 10 ng/ml, 60 min
[31] = [14C]doxorubicin alone 100 ng/ml, 60 min
[32] = [14C]doxorubicin alone 300 ng/ml, 60 min

In the case of `CC[C@]1(O)C[C@@H]2CN(CCc3c([nH]c4ccccc34)[C@@](C(=O)OC)(c3cc4c(cc3OC)N(C)[C@H]3[C@@](O)(C(=O)OC)[C@H](OC(C)=O)[C@]5(CC)C=CCN6CC[C@]43[C@@H]65)C2)C1` [[^3H]Vinblastine, vinblastine], the “tissue viability (glucose actively transported)” value (rat everted gut sacs [1]) is reported as “good tissue viability”, the Serosal transfer (rat everted gut sacs [2]; [5]) is reported as 0.006 ng/mg of protein and the Tissue uptake (rat everted gut sacs [2]; [5]) is reported as 0.061 + ng/mg of protein and 0.061 ng/mg of protein. The Total uptake (rat everted gut sacs [2]; [5]) was 0.067 ng/mg of protein, the Serosal transfer (rat everted gut sacs [2]; [6]) was 0.002 ± 0.000 ng/mg of protein and the Tissue uptake (rat everted gut sacs [2]; [6]) was 0.032 ± 0.005 ng/mg of protein. The Serosal transfer (rat everted gut sacs [2]; [7]) was 0.000 ng/mg of protein, the Tissue uptake (rat everted gut sacs [2]; [7]) was 0.001 ng/mg of protein and the Total uptake (rat everted gut sacs [2]; [7]) was 0.001 ng/mg of protein. The Serosal transfer (rat everted gut sacs [2]; [8]) was 0.002 ng/mg of protein, the Tissue uptake (rat everted gut sacs [2]; [8]) was 0.005 ng/mg of protein and the Total uptake (rat everted gut sacs [2]; [8]) was 0.007 ng/mg of protein. For the same molecule, the Serosal transfer (rat everted gut sacs [2]; [9]) was 0.003 ng/mg of protein, the Tissue uptake (rat everted gut sacs [2]; [9]) was 0.032 ng/mg of protein and the Total uptake (rat everted gut sacs [2]; [9]) was 0.035 ng/mg of protein. For the same molecule, the Serosal transfer (rat everted gut sacs [2]; [10]) was 0.006 ng/mg of protein, the Tissue uptake (rat everted gut sacs [2]; [10]) was 0.049 ng/mg of protein and the Total uptake (rat everted gut sacs [2]; [10]) was 0.055 ng/mg of protein. The Serosal transfer (rat everted gut sacs [2]; [11]) was 0.008 ng/mg of protein, the Tissue uptake (rat everted gut sacs [2]; [11]) was 0.050 ng/mg of protein and the Total uptake (rat everted gut sacs [2]; [11]) was 0.058 ng/mg of protein. For the same molecule, the Serosal transfer (rat everted gut sacs [2]; [12]) was 0.000 ± 0.000 ng/mg of protein, the Tissue uptake (rat everted gut sacs [2]; [12]) was 0.009 ± 0.000 ng/mg of protein and the Serosal transfer (rat everted gut sacs [2]; [13]) was 0.001 ± 0.000 ng/mg of protein. The Tissue uptake (rat everted gut sacs [2]; [13]) was 0.011 ± 0.001 ng/mg of protein, the Serosal transfer (rat everted gut sacs [2]; [14]) was 0.002 ± 0.001 ng/mg of protein and the Tissue uptake (rat everted gut sacs [2]; [14]) was 0.017 ± 0.001 ng/mg of protein. The Serosal transfer (rat everted gut sacs [2]; [15]) was 0.003 ± 0.001 ng/mg of protein, the Tissue uptake (rat everted gut sacs [2]; [15]) was 0.029 ± 0.007 ng/mg of protein and the “AUC Control of [^3H]Vinblastine, Blood” value [3, 16] was 53.47 % Dose/organ weight. For the same molecule, the “AUC Control of [^3H]Vinblastine, Cecum” value [3, 16] was 20.20 % Dose/organ weight, the “AUC Control of [^3H]Vinblastine, Faeces” value [3, 16] was 4.58 % Dose/organ weight and the “AUC Control of [^3H]Vinblastine, Heart” value [3, 16] was 1.80 % Dose/organ weight. For the same molecule, the “AUC Control of [^3H]Vinblastine, Kidney” value [3, 16] was 0.98 % Dose/organ weight, the “AUC Control of [^3H]Vinblastine, Large Intestinal Wash” value [3, 16] was 6.46 % Dose/organ weight and the “AUC Control of [^3H]Vinblastine, Large Intestine” value [3, 16] was 1.08 % Dose/organ weight. The “AUC Control of [^3H]Vinblastine, Liver” value [3, 16] was 4.36 % Dose/organ weight, the “AUC Control of [^3H]Vinblastine, Lung” value [3, 16] was 1.54 % Dose/organ weight and the “AUC Control of [^3H]Vinblastine, Small Intestinal Wash” value [3, 16] was 36.66 % Dose/organ weight. The “AUC Control of [^3H]Vinblastine, Small Intestine” value [3, 16] was 1.69 % Dose/organ weight, the “AUC Control of [^3H]Vinblastine, Spleen” value [3, 16] was 2.78 % Dose/organ weight and the “AUC Control of [^3H]Vinblastine, Stomach” value [3, 16] was 5.34 % Dose/organ weight. For the same molecule, the “AUC Control of [^3H]Vinblastine, Urine” value [3, 16] was 1.79 % Dose/organ weight, the “AUC Control of [3H]Vinblastine” value ([3]; Blood, 5 min-24 h) was 53.47 % Dose/organ weight and the “AUC Control of [3H]Vinblastine” value ([3]; Cecum, 5 min-24 h) was 20.20 % Dose/organ weight. The “AUC Control of [3H]Vinblastine” value ([3]; Faeces, 5 min-24 h) was 4.58 % Dose/organ weight, the “AUC Control of [3H]Vinblastine” value ([3]; Heart, 5 min-24 h) was 1.80 % Dose/organ weight and the “AUC Control of [3H]Vinblastine” value ([3]; Kidney, 5 min-24 h) was 0.98 % Dose/organ weight. For the same molecule, the “AUC Control of [3H]Vinblastine” value ([3]; Large Intestinal Wash, 5 min-24 h) was 6.46 % Dose/organ weight, the “AUC Control of [3H]Vinblastine” value ([3]; Large Intestine, 5 min-24 h) was 1.08 % Dose/organ weight and the “AUC Control of [3H]Vinblastine” value ([3]; Liver, 5 min-24 h) was 4.36 % Dose/organ weight. For the same molecule, the “AUC Control of [3H]Vinblastine” value ([3]; Lung, 5 min-24 h) was 1.54 % Dose/organ weight, the “AUC Control of [3H]Vinblastine” value ([3]; Small Intestinal Wash, 5 min-24 h) was 36.66 % Dose/organ weight and the “AUC Control of [3H]Vinblastine” value ([3]; Small Intestine, 5 min-24 h) was 1.69 % Dose/organ weight. For the same molecule, the “AUC Control of [3H]Vinblastine” value ([3]; Spleen, 5 min-24 h) was 2.78 % Dose/organ weight, the “AUC Control of [3H]Vinblastine” value ([3]; Stomach, 5 min-24 h) was 5.34 % Dose/organ weight and the “AUC Control of [3H]Vinblastine” value ([3]; Urine, 5 min-24 h) was 1.79 % Dose/organ weight. For the same molecule, the “levels in blood over the time course” value ([3]; [3H]vinblastine 100 ng/kg alone, 5 min-24 h) was “remained constant”, the “% of the dose in the stomach” value ([3]; [3H]vinblastine 100 ng/kg alone, after 1 hour) was 1.2-1.6% and the “% found in the cecum” value [3, 17] was 1.7±0.3%. The “% found in the faeces” value [3, 17] was 0.33±0.03%, the “% in the blood” value [3, 18] was 3% and the “% in the heart” value [3, 18] was 0.7%.

In the case of `COc1cccc2c1C(=O)c1c(O)c3c(c(O)c1C2=O)C[C@@](O)(C(=O)CO)C[C@@H]3O[C@H]1C[C@H](N)[C@H](O)[C@H](C)O1` [[^14C]Doxorubicin, doxorubicin], the Serosal transfer (rat everted gut sacs [4]; [19]) is reported as 0.03 ± 0.00 ng/mg of protein, the Tissue uptake (rat everted gut sacs [4]; [19]) is reported as 0.02 ± 0.00 ng/mg of protein and the Total uptake (rat everted gut sacs [4]; [19]) is reported as 0.05 ± 0.01 ng/mg of protein. The Serosal transfer (rat everted gut sacs [4]; [20]) was 0.010 ± 0.000 ng/mg of protein, the Tissue uptake (rat everted gut sacs [4]; [20]) was 0.006 ± 0.000 ng/mg of protein and the Serosal transfer (rat everted gut sacs [4]; [21]) was 0.05 ± 0.00 ng/mg of protein. For the same molecule, the Tissue uptake (rat everted gut sacs [4]; [21]) was 0.19 ± 0.03 ng/mg of protein, the Total uptake (rat everted gut sacs [4]; [21]) was 0.24 ± 0.03 ng/mg of protein and the Serosal transfer (rat everted gut sacs [4]; [22]) was 0.05 ± 0.07 ng/mg of protein. The Tissue uptake (rat everted gut sacs [4]; [22]) was 0.75 ± 0.13 ng/mg of protein, the Total uptake (rat everted gut sacs [4]; [22]) was 1.25 ± 0.07 ng/mg of protein and the Serosal transfer (rat everted gut sacs [4]; [23]) was 0.000 ng/mg of protein. The Tissue uptake (rat everted gut sacs [4]; [23]) was 0.001 ng/mg of protein, the Total uptake (rat everted gut sacs [4]; [23]) was 0.001 ng/mg of protein and the Serosal transfer (rat everted gut sacs [4]; [24]) was 0.008 ng/mg of protein. The Tissue uptake (rat everted gut sacs [4]; [24]) was 0.005 ng/mg of protein, the Total uptake (rat everted gut sacs [4]; [24]) was 0.013 ng/mg of protein and the Serosal transfer (rat everted gut sacs [4]; [25]) was 0.017 ng/mg of protein. For the same molecule, the Tissue uptake (rat everted gut sacs [4]; [25]) was 0.007 ng/mg of protein, the Total uptake (rat everted gut sacs [4]; [25]) was 0.024 ng/mg of protein and the Serosal transfer (rat everted gut sacs [4]; [26]) was 0.027 ng/mg of protein. For the same molecule, the Tissue uptake (rat everted gut sacs [4]; [26]) was 0.025 ng/mg of protein, the Total uptake (rat everted gut sacs [4]; [26]) was 0.052 ng/mg of protein and the Serosal transfer (rat everted gut sacs [4]; [27]) was 0.024 ng/mg of protein. The Tissue uptake (rat everted gut sacs [4]; [27]) was 0.030 ng/mg of protein, the Total uptake (rat everted gut sacs [4]; [27]) was 0.054 ng/mg of protein and the Serosal transfer (rat everted gut sacs [4]; [28]) was 0.0017 ± 0.002 ng/mg of protein. For the same molecule, the Tissue uptake (rat everted gut sacs [4]; [28]) was 0.007 ± 0.005 ng/mg of protein, the Serosal transfer (rat everted gut sacs [4]; [29]) was 0.029 ± 0.005 ng/mg of protein and the Tissue uptake (rat everted gut sacs [4]; [29]) was 0.082 ± 0.015 ng/mg of protein. For the same molecule, the Serosal transfer (rat everted gut sacs [4]; [30]) was 0.193 ± 0.028 ng/mg of protein, the Tissue uptake (rat everted gut sacs [4]; [30]) was 0.393 ± 0.078 ng/mg of protein and the Serosal transfer (rat everted gut sacs [4]; [31]) was 1.131 ± 0.500 ng/mg of protein. The Tissue uptake (rat everted gut sacs [4]; [31]) was 5.598 ± 1.280 ng/mg of protein, the Serosal transfer (rat everted gut sacs [4]; [32]) was 3.375 ± 0.900 ng/mg of protein and the Tissue uptake (rat everted gut sacs [4]; [32]) was 25.734 ± 3.668 ng/mg of protein. For the same molecule, the “serosal transfer time course” value (rat everted gut sacs [4]; [14C]doxorubicin, levels plateaued after 90 min) was “only linear for 90 min”.
